This data set can be described thus: solubility by stirred slurry, salt concentration in solution by HPLC. Format: physicochemical. The conditions noted are these: 25 °C, thermodynamic from solid, after 8 days stirring at 25 degC, slurry in "a volume of solvent" (solvent not named). As to the method:
The solubility of a sample of the hydrochloride salt of the invention was determined by adding an amount of it to a volume of solvent with stirring so as to form a slurry. The slurry was stirred at 25 degC. The stirred slurry was tested at regular intervals (i.e. 1, 3, 6 and 8 days) until the concentration of the salt in solution was substantially constant. HPLC was used to determine the salt concentration in solution.

Structures can show the parent of a compound that is named as a salt.

In US8263611B2, “Hydrochloride salt of an azabicyclo[3.2.1]octane derivative” (Neurosearch A/S, priority 2007, dated 2012) one finds solubility data, which are given here for one compound.

`COCC1C2CCC(CC1c1ccc(Cl)c(Cl)c1)N2` [salt of the invention, hydrochloride salt of (1R,2R,3S,5S)-3-(3,4-dichlorophenyl)-2-[(methyloxy)methyl]-8-azabicyclo[3.2.1]octane]: the solubility (usually the concentration that dissolves in the medium under given conditions) at 8 days turned out to be 438 mg/mL.
